Results: ChEMBL document CHEMBL1130912, “SAR of novel biarylmethylamine dopamine D4 receptor ligands” (Bioorg Med Chem Lett, 1998)
“And” between values parts separate entries of the source, which are not always exact repeats. Equal entries are not always repeated.

Columns and labels:
D(4) dopamine receptor = molecular target: T1, D(4) dopamine receptor (Homo sapiens, UniProt P21917); assay: biochemical
T1 sequence (P21917 whole entry): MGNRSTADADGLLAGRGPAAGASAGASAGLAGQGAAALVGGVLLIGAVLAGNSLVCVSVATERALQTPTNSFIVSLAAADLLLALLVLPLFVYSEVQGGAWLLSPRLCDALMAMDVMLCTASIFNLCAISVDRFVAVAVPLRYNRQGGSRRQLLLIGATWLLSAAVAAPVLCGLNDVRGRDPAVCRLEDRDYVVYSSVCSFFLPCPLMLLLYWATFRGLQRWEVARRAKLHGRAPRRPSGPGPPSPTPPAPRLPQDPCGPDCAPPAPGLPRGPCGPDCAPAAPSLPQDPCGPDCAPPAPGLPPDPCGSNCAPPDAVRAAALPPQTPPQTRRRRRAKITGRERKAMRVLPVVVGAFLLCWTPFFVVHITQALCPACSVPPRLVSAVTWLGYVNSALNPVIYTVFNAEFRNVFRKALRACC
Description: Binding affinity to cloned human Dopamine receptor D4 expressed in CHO cells using [3H]spiperone

[1] = molecular target: T2, 5-hydroxytryptamine receptor 1A (Rattus norvegicus, UniProt P19327); assay: biochemical
T2 sequence (P19327 whole entry): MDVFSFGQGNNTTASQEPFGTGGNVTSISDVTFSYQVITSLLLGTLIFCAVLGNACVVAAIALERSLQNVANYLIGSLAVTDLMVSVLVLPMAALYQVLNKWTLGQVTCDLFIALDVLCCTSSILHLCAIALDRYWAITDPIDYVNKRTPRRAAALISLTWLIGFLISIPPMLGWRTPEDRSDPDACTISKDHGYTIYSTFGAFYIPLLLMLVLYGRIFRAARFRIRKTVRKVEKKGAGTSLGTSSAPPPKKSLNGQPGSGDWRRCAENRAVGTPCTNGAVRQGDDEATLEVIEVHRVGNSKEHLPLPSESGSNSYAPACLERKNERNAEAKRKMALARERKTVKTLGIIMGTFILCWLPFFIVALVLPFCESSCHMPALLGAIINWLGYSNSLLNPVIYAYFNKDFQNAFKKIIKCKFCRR
Description: Binding affinity to 5-HT1A receptor in rat hippocampus by [3H]8-OH-DPAT displacement.

D(2) dopamine receptor [2] = molecular target: T3, D(2) dopamine receptor (Homo sapiens, UniProt P14416); assay: biochemical
Description: Binding affinity to cloned human Dopamine receptor D2 expressed in A9L cells by [3H]spiperone displacement.

D(3) dopamine receptor [3] = molecular target: T4, D(3) dopamine receptor (Homo sapiens, UniProt P35462); assay: biochemical
Description: Binding affinity to cloned human Dopamine receptor D3 expressed in CHO cells by [3H]spiperone displacement.

[4] = molecular target: T5, D(4) dopamine receptor (Homo sapiens) (UniProt P21917); assay: Binding affinity to cloned human dopamine receptor D4 expressed in CHO cells using [3H]spiperone at 100 nM concentration; format: cell-based
T5 sequence (whole entry): T1 sequence (P21917 whole entry)

D(2) dopamine receptor [5] = molecular target: T3, D(2) dopamine receptor; assay: Binding affinity to cloned human Dopamine receptor D2 expressed in A9L cells using [3H]spiperone at 100 nM concentration; format: cell-based
D(3) dopamine receptor [6] = molecular target: T4, D(3) dopamine receptor; assay: Binding affinity to cloned human Dopamine receptor D3 expressed in CHO cells using [3H]spiperone at 100 nM concentration; format: cell-based

T3 sequence (P14416 whole entry): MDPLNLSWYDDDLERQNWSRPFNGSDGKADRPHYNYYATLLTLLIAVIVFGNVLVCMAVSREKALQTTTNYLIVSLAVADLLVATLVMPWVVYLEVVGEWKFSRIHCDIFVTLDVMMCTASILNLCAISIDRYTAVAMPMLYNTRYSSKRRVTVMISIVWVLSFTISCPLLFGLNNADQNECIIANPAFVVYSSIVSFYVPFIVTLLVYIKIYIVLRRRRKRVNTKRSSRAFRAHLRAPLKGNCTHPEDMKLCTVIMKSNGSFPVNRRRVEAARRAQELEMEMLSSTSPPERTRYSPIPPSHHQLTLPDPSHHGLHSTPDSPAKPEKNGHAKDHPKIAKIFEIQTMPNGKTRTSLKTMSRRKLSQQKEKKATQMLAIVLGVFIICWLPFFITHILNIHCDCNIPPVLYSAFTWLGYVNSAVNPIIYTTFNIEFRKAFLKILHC
T4 sequence (P35462 whole entry): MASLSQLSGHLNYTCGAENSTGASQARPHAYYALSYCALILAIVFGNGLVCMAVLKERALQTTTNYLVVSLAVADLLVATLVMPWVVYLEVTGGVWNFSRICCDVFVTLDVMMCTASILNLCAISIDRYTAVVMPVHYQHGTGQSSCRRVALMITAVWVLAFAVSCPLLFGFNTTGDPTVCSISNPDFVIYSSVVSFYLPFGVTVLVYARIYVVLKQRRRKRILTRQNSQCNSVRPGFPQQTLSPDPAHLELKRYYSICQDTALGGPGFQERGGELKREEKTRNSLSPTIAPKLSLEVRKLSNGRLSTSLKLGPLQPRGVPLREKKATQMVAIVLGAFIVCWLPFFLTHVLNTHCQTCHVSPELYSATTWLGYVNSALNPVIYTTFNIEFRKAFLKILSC

Structure (SMILES) | IC50 (D(4) dopamine receptor) | IC50 [1] [nM] | IC50 (D(2) dopamine receptor [2]) [nM] | IC50 (D(3) dopamine receptor [3]) [nM] | inhibition [4] [%] | inhibition (D(2) dopamine receptor [5]) [%] | inhibition (D(3) dopamine receptor [6]) [%]
COc1cccc(-c2cccc(CN3CCN(c4ncccn4)CC3)c2)c1 | 17 nM | 700 | 490 | 1100 | – | – | –
COc1ccc(-c2cccc(CN3CCN(c4ncccn4)CC3)c2)cc1 | 57 nM | 2000 | 50 | 72 | – | – | –
Fc1ccccc1-c1cccc(CN2CCN(c3ncccn3)CC2)c1 | 8 nM | 900 | 250 | 320 | – | – | –
Fc1ccc(-c2cncc(CN3CCN(c4ccccn4)CC3)c2)cc1 | 7 nM | 10 | 60 | 300 | – | – | –
Fc1ccc(-c2cncc(CN3CCN(c4cnccn4)CC3)c2)cc1 | 25 nM | 400 | 450 | 480 | – | – | –
Fc1ccc(-c2cncc(CN3CCN(c4ncccn4)CC3)c2)cc1 | 9 nM and 7 nM | 100 | 120 | 150 | – | – | –
c1cnc(N2CCN(Cc3cccc(-c4ccsc4)c3)CC2)nc1 | 3 nM and 6 nM | 600 | 300 | 200 | – | – | –
Fc1ccc(-c2cncc(CN3CCN(c4ccc(F)cc4)CC3)c2)cc1 | 8 nM | 400 | 70 | 200 | – | – | –
Fc1ccc(-c2cncc(CN3CCN(c4ccccc4F)CC3)c2)cc1 | 3 nM and 7 nM | 20 | 25 | 8 | – | – | –
c1cnc(N2CCN(Cc3cccc4c3Cc3ccccc3-4)CC2)nc1 | 20 nM | > 10000 | 9800 | 5600 | – | – | –
Fc1ccc(-c2cncc(CN3CCN(c4ccccc4)CC3)c2)cc1 | 6 nM | 70 | 23 | 33 | – | – | –
c1cnc(N2CCN(Cc3cccc4c3sc3ccccc34)CC2)nc1 | – | > 100 | – | – | 87 | 97 | 101
c1cnc(N2CCN(CC3c4ccccc4-c4ccccc43)CC2)nc1 | – | > 100 | – | – | 99 | 100 | 95
c1cnc(N2CCN(Cc3ccc4c(c3)Cc3ccccc3-4)CC2)nc1 | – | > 100 | – | – | 87 | 89 | 91
c1cnc(N2CCN(Cc3cccc4c3-c3ccccc3C4)CC2)nc1 | 4800 nM | > 100 | 2300 | 4000 | – | – | –
CC(C)Oc1cccnc1N(C)C1CCN(Cc2ccccc2)CC1 | 5 nM and 8 nM | > 1000 | 620 | 5500 | – | – | –
Fc1ccc(-c2cccc(CN3CCN(c4ncccn4)CC3)c2)cc1 | 2 nM and 7 nM | 700 | 49 | 59 | – | – | –
COc1ccccc1-c1cccc(CN2CCN(c3ncccn3)CC2)c1 | 16 nM | 300 | 360 | 710 | – | – | –
c1cnc(N2CCN(Cc3cccc4c3oc3ccccc34)CC2)nc1 | 290 nM | > 100 | – | – | – | 94 | 91
Fc1cccc(-c2cccc(CN3CCN(c4ncccn4)CC3)c2)c1 | 4 nM and 9 nM | 300 | 81 | 200 | – | – | –
